This is an account of results in patent publication US20080255206A1, “Rxr Agonists and Antagonists, Alone or in Combination with Ppar Ligands, in the Treatment of Metabolic and Cardiovascular Diseases” (priority 2005, published 2008).

For experiment [1], the target named is T1, RXRα (Homo sapiens, UniProt P19793).
T1 sequence (P19793 1-462): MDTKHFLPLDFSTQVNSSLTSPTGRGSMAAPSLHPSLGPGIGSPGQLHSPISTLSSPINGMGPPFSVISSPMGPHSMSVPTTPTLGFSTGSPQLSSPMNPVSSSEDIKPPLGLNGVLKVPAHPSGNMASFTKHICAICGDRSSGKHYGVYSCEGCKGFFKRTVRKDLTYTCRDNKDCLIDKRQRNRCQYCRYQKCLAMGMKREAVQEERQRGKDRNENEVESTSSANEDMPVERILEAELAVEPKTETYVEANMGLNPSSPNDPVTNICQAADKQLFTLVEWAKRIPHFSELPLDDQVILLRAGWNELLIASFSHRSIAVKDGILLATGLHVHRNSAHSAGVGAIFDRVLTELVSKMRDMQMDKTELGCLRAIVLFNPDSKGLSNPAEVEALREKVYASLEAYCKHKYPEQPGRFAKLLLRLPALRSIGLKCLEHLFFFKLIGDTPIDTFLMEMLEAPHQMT
The experiment is described as follows: Retinoid activation assay, RXRα (Schneider SL-3 cells, luciferase reporter). The experiment is classed as cell-based. Particulars: read-out: Activation EC50 RXR α. The protocol:
Full length RXR cDNA is used for transfection. As reporter system, the luciferase gene is used in a construct with three copies of a RXR response element from rat CRBP gene, (formerly RARE from betaRAR gene), fused to alcoholdehydrogenase gene promoter in the plasmid pGL2-basic. Schneider SL-3 cells from Drosophila are transiently transfected 3-4 h before the experiment by the Ca-phosphate-DNA coprecipitation method. […] At the end of the incubation, the cell supernatants are assayed for luciferase activity. Results are given as EC50 (nM), the concentration leading to half-maximal activation.

Another experiment addresses T2, PPARγ/RXRα Heterodimer (Homo sapiens, UniProt P19793).
T2 construct: co-transfected with plasmids expressing the full length RXR heteropartner receptor; expressed in transfected cells
T2 sequence (P19793 1-462): T1 sequence (P19793 1-462)
T2 sequence (P37231 1-505 partner): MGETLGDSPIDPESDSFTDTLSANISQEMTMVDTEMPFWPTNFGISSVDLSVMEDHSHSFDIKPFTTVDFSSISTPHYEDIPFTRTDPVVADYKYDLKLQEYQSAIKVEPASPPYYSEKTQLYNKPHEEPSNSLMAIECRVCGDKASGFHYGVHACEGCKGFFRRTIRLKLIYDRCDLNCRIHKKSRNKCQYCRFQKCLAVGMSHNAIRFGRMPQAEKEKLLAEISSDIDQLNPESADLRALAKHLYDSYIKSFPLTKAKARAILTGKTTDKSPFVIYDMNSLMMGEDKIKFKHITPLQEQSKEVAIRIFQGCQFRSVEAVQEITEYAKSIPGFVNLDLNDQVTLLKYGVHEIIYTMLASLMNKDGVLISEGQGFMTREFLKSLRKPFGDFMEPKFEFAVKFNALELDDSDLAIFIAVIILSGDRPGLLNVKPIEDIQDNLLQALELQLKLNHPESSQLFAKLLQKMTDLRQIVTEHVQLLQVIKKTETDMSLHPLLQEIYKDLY
Put plainly: PPARγ/RXRα heterodimer activation (transactivation) assay. The experiment is classed as cell-based. The text has this:
Nuclear hormone receptor (NHR) ligand dependent transcriptional transactivation assay.
Heterodimer reporter assays are potentially more important selection criteria for synthetic agonistic NHR ligands as they embody a more natural situation. Basically plasmids expressing the recombinant full length NHR are co-transfected with plasmids expressing the full length RXR heteropartner receptor and a reporter plasmid containing several copies of the natural responsive elements for the respective NHR driving the luciferase reporter gene.

The target in experiment [2] is T1, RXRα. Put plainly: Retinoid binding assay, RXRα. Set-up: made in house; host or cells: E. coli. The following applies: [3H] 9-cis retinoic acid 20 nM; read-out: Binding Affinity IC50 RXR α. The text has this: (§1) The DEF domains of RAR's and the full length RXR's, expressed in E.coli, are used to measure competitive retinoid binding. […] 9-cis retinoic acid (for RXR's), respectively. […] Separation of bound from free radioactivity is achieved by charcoal/dextran (RAR's) or by desalting columns (RXR's). […] Retinoid Activation Assays

Another experiment addresses T3, RXRγ (Homo sapiens, UniProt P48443).
T3 sequence (P48443 1-463): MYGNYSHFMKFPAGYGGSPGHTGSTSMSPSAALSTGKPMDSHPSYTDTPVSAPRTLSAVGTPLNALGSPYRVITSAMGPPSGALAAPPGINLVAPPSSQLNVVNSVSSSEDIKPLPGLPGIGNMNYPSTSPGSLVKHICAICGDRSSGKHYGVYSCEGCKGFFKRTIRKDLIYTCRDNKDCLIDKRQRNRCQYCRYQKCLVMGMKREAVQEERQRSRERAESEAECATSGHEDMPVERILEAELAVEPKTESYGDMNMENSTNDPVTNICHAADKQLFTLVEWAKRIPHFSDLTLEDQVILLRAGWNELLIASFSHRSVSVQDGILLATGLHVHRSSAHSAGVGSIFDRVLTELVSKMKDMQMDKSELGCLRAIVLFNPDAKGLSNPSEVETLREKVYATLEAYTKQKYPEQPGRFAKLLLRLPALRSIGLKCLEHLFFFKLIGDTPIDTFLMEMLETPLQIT
The experiment is described as follows: Retinoid binding assay, RXRγ. Set-up: made in house; host or cells: E. coli. The following applies: [3H] 9-cis retinoic acid 20 nM; read-out: Binding Affinity IC50 RXR γ.
Source text: as §1

The target of another experiment is T4, RARβ (Homo sapiens, UniProt P10826).
T4 sequence (P10826 183-417 limits assumed): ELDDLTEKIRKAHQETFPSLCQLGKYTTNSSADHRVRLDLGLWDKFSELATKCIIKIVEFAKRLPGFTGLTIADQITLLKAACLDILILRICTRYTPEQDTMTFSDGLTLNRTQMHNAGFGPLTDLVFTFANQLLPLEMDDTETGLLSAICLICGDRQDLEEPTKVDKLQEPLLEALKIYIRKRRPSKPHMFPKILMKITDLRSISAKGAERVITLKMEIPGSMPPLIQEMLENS
The experiment is described as follows: Retinoid activation assay, RARβ (COS-1 cells, SeAP reporter). The experiment is classed as cell-based. The following applies: read-out: Activation EC50 RAR β. As for the experimental part: Chimeric RAR cDNAs are used for transfection which contain the DNA binding region of the estrogen receptor. As reporter system, the SeAp (secreted alkaline phosphatase) gene under control of the vitellogenin estrogen response element fused to the herpes simplex thymidinkinase promoter (vit-TK-SeAP) is used. The galactosidase expression vector pCH110 serves to correct for variation in transfection efficiency. […] At the end of the incubation, the cell supernatants are assayed for SeAP activity. Results are given as EC50 (nM), the concentration leading to half-maximal activation.

pEC50, pIC50: −log10 of the molar value.

As to `C/C(=C/C=C/C(C)=C/C(=O)O)c1cc2c(cc1C)C(C)(C)CCCC2` [Compound 13, (2E,4E,6Z)-3-Methyl-7-(3,5,5,-trimethyl-6,7,8,9-tetrahydro-5H-benzocyclohepten-2-yl)-octa-2,4,6-trienoic acid], the results for the pEC50 at RXRα [1] and on PPARγ/RXRα Heterodimer were 8.82 and 7.64, respectively. For the same molecule, the values for the pIC50 on RXRα [2] and on RXRγ were 6.74 and 6.83, respectively.
For `CC1=C(C#CC2=C(/C=C/C(C)=C/C(=O)O)CCCCC2)C(C)(C)CCC1` [Compound 18] the same measures were no more than 5.00, less than 5.00, 7.02 and 7.19.
For `CC1=C(/C=C/C2=C(/C=C/C(C)=C/C(=O)O)CCCCC2)C(C)(C)CCC1` [Compound 1, (2E,4E)-3-methyl-5-[2-[(E)-2-(2,6,6-trimethyl-1-cyclohexen-1-yl)ethenyl]-1-cyclohepten-1-yl]-2,4-pentadienoic acid] the same measures were 8.85, 7.15, 6.96 and 6.82.
As to `CCCCOc1c([C@@H]2C[C@@H]2/C=C/C(C)=C/C(=O)O)cc(C(C)(C)C)cc1C(C)(C)C` (racemic) [Compound 16, (2E,4E)-(1RS,2RS)-5-[2-(3,5-Di-tert-butyl-2-butoxy-phenyl)-cyclopropyl]-3-methyl-penta-2,4-dienoic acid], the values for the pEC50 on RXRα [1] and at PPARγ/RXRα Heterodimer were no more than 5.00 and less than 5.00, respectively. Besides, the pIC50 is 7.19 on RXRα [2] and 7.09 at RXRγ.
For the molecule `CCOc1c(\C(C)=C/C=C/C(C)=C/C(=O)O)cc(C(C)(C)C)cc1C(C)(C)C` [Compound 21, (2E,4E,6Z)-7-[3,5-Bis(1,1-dimethylethyl)-2-ethoxyphenyl]-3-methyl-2,4,6-octatrienoic acid/ethyl ester], the pEC50 is no more than 5.00 at RXRα [1] and 8.90 at PPARγ/RXRα Heterodimer. In addition, the pIC50 on RXRα [2] was 7.62; on RXRγ it was 7.24.
Turning to `CCC1(CC)CCC(C)(C)c2cc(\C(C)=C/C=C/C(C)=C/C(=O)O)ccc21` [Compound 24, (2E,4E,6Z)-7-(5,5-Diethyl-8,8-dimethyl-5,6,7,8-tetrahydro-naphthalen-2-yl)-3-methyl-octa-2,4,6-trienoic acid], the figures for the pEC50 at RARβ, at RXRα [1] and at PPARγ/RXRα Heterodimer were 8.00, no more than 5.00 and 8.46, respectively. Also, the values for the pIC50 at RXRα [2] and at RXRγ were 6.17 and 6.18, respectively.
In the case of `CC1=C(/C=C/C2=C(/C=C/C(C)=C/C(=O)O)CCC2)C(C)(C)CCC1` [Compound 14, (2E,4E)-3-Methyl-5-[2-[(E)-2-(2,6,6-trimethyl-1-cyclohexen-1-yl)ethenyl]-1-cyclopenten-1-yl]-2,4-pentadienoic acid], the pEC50 at RARβ is 7.05; on RXRα [1], 8.22; at PPARγ/RXRα Heterodimer it was 8.15. For the same molecule, the pIC50 is 6.96 at RXRα [2] and 6.85 at RXRγ.
For `CC(/C=C/C1=C(c2ccc3c(c2)C(C)(C)CCC3(C)C)CCCC1)=C\C(=O)O` [Compound 6, (2E,4E)-3-Methyl-5-[2-(5,5,8,8-tetramethyl-5,6,7,8-tetrahydro-naphthalen-2-yl)-cyclohex-1-enyl]-penta-2,4-dienoic acid], the pEC50 at RXRα [1] is 7.72. In addition, the pIC50 on RXRα [2] was 6.48; on RXRγ, 6.62.
Turning to `CC(/C=C/c1sccc1-c1ccc2c(c1)C(C)(C)CCC2(C)C)=C\C(=O)O` [Compound 9], the results for the pEC50 on RARβ, on RXRα [1] and on PPARγ/RXRα Heterodimer were 6.44, 8.60 and 7.42, respectively. The pIC50 at RXRα [2] and on RXRγ was 6.64 throughout.
Take `CC(/C=C/[C@@H]1C[C@@H]1c1ccc2c(c1)C(C)(C)CCC2(C)C)=C\C(=O)O` (racemic) [Compound 4, (2E,4E)-3-methyl-5-[(1RS,2RS)-2-(5,5,8,8-tetramethyl-5,6,7,8-tetrahydro-naphthalen-2-yl)-cyclopropyl]-penta-2,4-dienoic acid]: the pEC50 at RARβ is 5.92; on RXRα [1], 8.46. Also, the pIC50 was 7.08 at RXRα [2] and 6.90 at RXRγ.
Consider `CC1=C(/C=C/c2sccc2/C=C/C(C)=C/C(=O)O)C(C)(C)CCC1` [Compound 5, (2E,4E)-3-Methyl-5-[2-[(E)-2-(2,6,6-trimethyl-1-cyclohexen-1-yl)ethenyl]-3-thienyl]-2,4-pentadienoic acid], for which the pEC50 at RARβ is 7.07; on RXRα [1] it was 9.10; at PPARγ/RXRα Heterodimer, 8.82. Moreover, the pIC50 is 6.82 at RXRα [2] and 6.80 at RXRγ.
Consider `CCCCOc1c(\C(C)=C/C=C/C(C)=C/C(=O)O)cc(C(C)(C)C)cc1C(C)(C)C` [Compound 15, (2E,4E,6Z)-7-[2-butoxy-3,5-bis(1,1-dimethylethyl)phenyl]-3-methyl-2,4,6-octatrienoic acid], for which the pEC50 at RXRα [1] was no more than 5.00; on PPARγ/RXRα Heterodimer it was less than 5.00. Besides, the pIC50 is 7.52 on RXRα [2] and 7.33 on RXRγ.
For the molecule `CCOc1c([C@@H]2C[C@@H]2/C=C/C(C)=C/C(=O)O)cc(C(C)(C)C)cc1C(C)(C)C` (racemic) [Compound 17, (2E,4E)-(1RS,2RS)-5-[2-(3,5-Di-tert-butyl-2-ethoxy-phenyl)-cyclopropyl]-3-methyl-penta-2,4-dienoic acid], the pEC50 on RXRα [1] is no more than 5.00; on PPARγ/RXRα Heterodimer it was less than 5.00. The pIC50 was 7.31 on RXRα [2] and 7.16 at RXRγ.
With `CC(/C=C/c1ccccc1-c1ccc2c(c1)C(C)(C)CCC2(C)C)=C\C(=O)O` [Compound 7, (2E,4E)-3-methyl-5-[2-(5,5,8,8-tetramethyl-5,6,7,8-tetrahydro-naphthalen-2-yl)-phenyl]-penta-2,4-dienoic acid], the pEC50 on RXRα [1] was 8.22. Also, the pIC50 on RXRα [2] is 6.11; at RXRγ it was 6.01.
